Drawing on patent publication US8324264B1, “Inhibitors of bacterial biofilms and related methods” (Sequoia Sciences, Inc., priority 2011, dated 2012), this text covers melting point and IC85 for 15 molecules.

One series concerns E. coli biofilms. Kind of series: Biofilm growth assay (spreading biofilm on semi-solid agar), E. coli. Type of series: cell-based. Conditions: Escherichia coli, read-out: E. coli: concentration that reduces the area of the spreading biofilm by greater than or equal to 85%. In short, it runs like this: (§1)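 Compound added to semi-solid agar: M8 with 0.2% glucose, 100 μM CaCl2, 1 mM MgSO4, 0.5% Casamino acids (P. aeruginosa) or LB with 0.6% agar, 0.5% glucose (E. coli). Center-inoculated with 5 μL overnight culture, incubated overnight at 37 °C; value is concentration (μg/ml) reducing spreading area ≥85% versus negative controls.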

Another series relates to P. aeruginosa biofilms. Kind of series: Biofilm growth assay (spreading biofilm on semi-solid agar), P. aeruginosa. Conditions: Pseudomonas aeruginosa, read-out: P. aeruginosa: concentration that reduces the area of the spreading biofilm by greater than or equal to 85%. It is filed as cell-based. The method in brief:
as §1

Setting [1] is: biofilm growth assay, overnight 37° C., vs negative controls, Tables 1-5.

≈ marks a conversion by molar mass, not a printed value. Counter-ions that a name gives are not always drawn. Like-named read-outs stand apart in the source and are kept apart here.

The melting point is the temperature of the solid-liquid transition. Molecule `CC1(C)CC[C@]2(c3n[nH]c(O)c3CCN)CC[C@]3(C)C(=C(c4ccoc4CN4CCOCC4)CC4[C@@]5(C)Cc6c(n[nH]c6N)C(C)(C)[C@@H]5CC[C@]43C)[C@@H]2C1` (stereo partly drawn) [Compound 92, 3-((4aS,6aS,6bR,8aR,13aR,15bS)-12-Amino-2,2,6a,6b,9,9,13a-heptamethyl-15-(2-(morpholinomethyl)furan-3-yl)-2,3,4,4a,5,6,6a,6b,7,8,8a,9,11,13,13a,13b,14,15b-octadecahydro-1H-chryseno[1,2-f]indazol-4-a-yl)-4-(2-aminoethyl)-1H-pyrazol-5-ol] showed a melting point of 238 to 240 °C. In addition, in the series with E. coli biofilms (setting [1]), the IC85 was 2 µg/mL (≈ 2.7 µM). For the same molecule, the IC85 with P. aeruginosa biofilms (setting [1]) was 0.5 µg/mL (≈ 0.676 µM).

In the case of `CC1(C)CC[C@]2(C(=O)O)CC[C@]3(C)C(=C(c4c[nH]c5ccccc45)CC4[C@@]5(C)Cc6c(n[nH]c6N)C(C)(C)[C@@H]5CC[C@]43C)[C@@H]2C1` (stereo partly drawn) [Example 8, (4aS,6aS,6bR,8aR,13aR,15bS)-12-Amino-15-(1H-indol-3-yl)-2,2,6a,6b,9,9,13a-heptamethyl-2,3,4,4a,5,6,6a,6b,7,8,8a,9,11,13,13a,13b,14,15b-octadecahydro-1H-chryseno[1,2-f]indazole-4-a-carboxylic acid], the melting point is > 300 °C (dec.). Moreover, the IC85 with E. coli biofilms (setting [1]) is 1 µg/mL (≈ 1.64 µM). Also, the IC85 with P. aeruginosa biofilms (setting [1]) amounted to 0.25 µg/mL (≈ 0.411 µM).

Take `CC1(C)CC[C@]2(C(=O)Nc3nnn[nH]3)CC[C@]3(C)C(=CCC4[C@@]5(C)Cc6c(n[nH]c6N)C(C)(C)C5CC[C@]43C)C2C1` (stereo partly drawn) [Compound 61, (4aS,6aS,6bR,13aR)-12-Amino-2,2,6a,6b,9,9,13a-heptamethyl-N-(1H-tetrazol-5-yl)-2,3,4,4a,5,6,6a,6b,7,8,8a,9,11,13,13a,13b,14,15b-octadecahydro-1H-chryseno[1,2-f]indazole-4-a-carboxamide]: the melting point is > 300 °C. Also, in the series on E. coli biofilms, the IC85 came out at 0.5 µg/mL (≈ 0.892 µM). The IC85 with P. aeruginosa biofilms was 0.5 µg/mL (≈ 0.892 µM).

Regarding `CC1(C)CC[C@]2(C(=O)O)CC[C@]3(C)C(=C(c4cccnc4)CC4[C@@]5(C)Cc6c(n[nH]c6N)C(C)(C)[C@@H]5CC[C@]43C)[C@@H]2C1` (stereo partly drawn) [Example 12, (4aS,6aS,6bR,8aR,13aR,15bS)-12-Amino-2,2,6a,6b,9,9,13a-heptamethyl-15-(pyridin-3-yl)-2,3,4,4a,5,6,6a,6b,7,8,8a,9,11,13,13a,13b,14,15b-octadecahydro-1H-chryseno[1,2-f]indazole-4-a-carboxylic acid], the melting point was > 300 °C. Also, the IC85 in the series with E. coli biofilms (setting [1]) turned out to be 1 µg/mL (≈ 1.75 µM). Moreover, the IC85 in the series with P. aeruginosa biofilms (setting [1]) was 0.5 µg/mL (≈ 0.876 µM).

Take `C/C=C/C1=C2[C@@H]3CC(C)(C)CC[C@]3(C(=O)O)CC[C@@]2(C)[C@]2(C)CC[C@H]3C(C)(C)c4n[nH]c(N)c4C[C@]3(C)C2C1` (stereo partly drawn) [Example 5, (4aS,6aS,6bR,8aR,13aR,15bS)-12-Amino-2,2,6a,6b,9,9,13a-heptamethyl-15-((E)-prop-1-enyl)-2,3,4,4a,5,6,6a,6b,7,8,8a,9,11,13,13a,13b,14,15b-octadecahydro-1H-chryseno[1,2-f]indazole-4-a-carboxylic acid]: the melting point was > 300 °C. For the same molecule, the IC85 in the series with E. coli biofilms (setting [1]) came to 1 µg/mL (≈ 1.87 µM). Further, in the series on P. aeruginosa biofilms (setting [1]), the IC85 was found to be 0.5 µg/mL (≈ 0.937 µM).

As to `CC1(C)CC[C@]2(C(=O)O)CC[C@]3(C)C(=C(c4cc[nH]c4)CC4[C@@]5(C)Cc6c(n[nH]c6N)C(C)(C)[C@@H]5CC[C@]43C)[C@@H]2C1` (stereo partly drawn) [Example 6, (4aS,6aS,6bR,8aR,13aR,15bS)-12-Amino-2,2,6a,6b,9,9,13a-heptamethyl-15-(1H-pyrrol-3-yl)-2,3,4,4a,5,6,6a,6b,7,8,8a,9,11,13,13a,13b,14,15b-octadecahydro-1H-chryseno[1,2-f]indazole-4-a-carboxylic acid], the melting point was > 300 °C. The IC85 with E. coli biofilms (setting [1]) turned out to be 0.25 µg/mL (≈ 0.447 µM). Also, the IC85 in the series with P. aeruginosa biofilms (setting [1]) stood at 0.125 µg/mL (≈ 0.224 µM).

For the molecule `CC1(C)CC[C@]2(C(=O)Sc3nnc(N)[nH]3)CC[C@]3(C)C(=C(c4cccnc4)CC4[C@@]5(C)Cc6c(n[nH]c6N)C(C)(C)[C@@H]5CC[C@]43C)[C@@H]2C1` (stereo partly drawn) [Compound 91, (4aS,6aS,6bR,8aR,13aR,15bS)—S-5-Amino-4H-1,2,4-triazol-3-yl 12-amino-2,2,6a,6b,9,9,13a-heptamethyl-15-(pyridin-3-yl)-2,3,4,4a,5,6,6a,6b,7,8,8a,9,11,13,13a,13b,14,15b-octadecahydro-1H-chryseno[1,2-f]indazole-4-a-carbothioate], the melting point was > 300 °C. For the same molecule, the IC85 in the series on E. coli biofilms (setting [1]) was found to be 1 µg/mL (≈ 1.49 µM). Further, the IC85 in the series with P. aeruginosa biofilms (setting [1]) came to 1 µg/mL (≈ 1.49 µM).

Take `CC1(C)CC[C@]2(C(=O)Nc3cc(N)n[nH]3)CC[C@]3(C)C(=CCC4[C@@]5(C)Cc6c(n[nH]c6N)C(C)(C)C5CC[C@]43C)C2C1` (stereo partly drawn) [Compound 69, (4aS,6aS,6bR,13aR)-12-amino-N-(3-amino-1H-pyrazol-5-yl)-2,2,6a,6b,9,9,13a-heptamethyl-2,3,4,4a,5,6,6a,6b,7,8,8a,9,11,13,13a,13b,14,15b-octadecahydro-1H-chryseno[1,2-f]indazole-4-a-carboxamide]: the melting point is > 300 °C. In addition, the IC85 in the series with E. coli biofilms (setting [1]) turned out to be 1 µg/mL (≈ 1.74 µM). Moreover, the IC85 in the series on P. aeruginosa biofilms (setting [1]) worked out at 1 µg/mL (≈ 1.74 µM).

On to `CC1(C)CC[C@]2(C(=O)O)CC[C@]3(C)C(=C(c4c[nH]c(CN5CCOCC5)c4)CC4[C@@]5(C)Cc6c(n[nH]c6N)C(C)(C)[C@@H]5CC[C@]43C)[C@@H]2C1` (stereo partly drawn) [Example 9, (4aS,6aS,6bR,8aR,13aR,15bS)-12-Amino-2,2,6a,6b,9,9,13a-heptamethyl-15-(5-(morpholinomethyl)-1H-pyrrol-3-yl)-2,3,4,4a,5,6,6a,6b,7,8,8a,9,11,13,13a,13b,14,15b-octadecahydro-1H-chryseno[1,2-f]indazole-4-a-carboxylic acid], for which the melting point is 270 to 280 °C (dec.). The IC85 with E. coli biofilms (setting [1]) is 1 µg/mL (≈ 1.52 µM). In the series on P. aeruginosa biofilms (setting [1]), the IC85 was found to be 0.5 µg/mL (≈ 0.76 µM).

Take `CN(C)c1cc(C2=C3[C@@H]4CC(C)(C)CC[C@]4(C(=O)O)CC[C@@]3(C)[C@]3(C)CC[C@H]4C(C)(C)c5n[nH]c(N)c5C[C@]4(C)C3C2)ccn1` (stereo partly drawn) [Example 22, (4aS,6aS,6bR,8aR,13aR,15bS)-12-Amino-15-(2-(dimethylamino)pyridin-4-yl)-2,2,6a,6b,9,9,13a-heptamethyl-2,3,4,4a,5,6,6a,6b,7,8,8a,9,11,13,13a,13b,14,15b-octadecahydro-1H-chryseno[1,2-f]indazole-4-a-carboxylic acid]: the melting point is > 300 °C. The IC85 with E. coli biofilms (setting [1]) is > 2 µg/mL. Further, the IC85 in the series on P. aeruginosa biofilms (setting [1]) was 1 µg/mL (≈ 1.63 µM).

In the case of `CC1(C)CC[C@]2(C(=O)Nc3cc(S)n[nH]3)CC[C@]3(C)C(=CCC4[C@@]5(C)Cc6c(n[nH]c6N)C(C)(C)C5CC[C@]43C)C2C1` (stereo partly drawn) [Compound 79, (4aS,6aS,6bR,13aR)-12-Amino-N-(3-mercapto-1H-pyrazol-5-yl)-2,2,6a,6b,9,9,13a-heptamethyl-2,3,4,4a,5,6,6a,6b,7,8,8a,9,11,13,13a,13b,14,15b-octadecahydro-1H-chryseno[1,2-f]indazole-4-a-carboxamide], the melting point is > 300 °C. For the same molecule, in the series with E. coli biofilms (setting [1]), the IC85 worked out at 0.5 µg/mL (≈ 0.846 µM). In addition, the IC85 in the series with P. aeruginosa biofilms (setting [1]) came to 0.25 µg/mL (≈ 0.423 µM).

Regarding `C=CC1=C2[C@@H]3CC(C)(C)CC[C@]3(C(=O)O)CC[C@@]2(C)[C@]2(C)CC[C@H]3C(C)(C)c4n[nH]c(N)c4C[C@]3(C)C2C1` (stereo partly drawn) [Example 13, (4aS,6aS,6bR,8aR,13aR,15bS)-12-Amino-2,2,6a,6b,9,9,13a-heptamethyl-15-vinyl-2,3,4,4a,5,6,6a,6b,7,8,8a,9,11,13,13a,13b,14,15b-octadecahydro-1H-chryseno[1,2-f]indazole-4-a-carboxylic acid], the melting point is > 300 °C. Besides, the IC85 with E. coli biofilms (setting [1]) amounted to 1 µg/mL (≈ 1.92 µM). Also, in the series on P. aeruginosa biofilms (setting [1]), the IC85 came to 0.5 µg/mL (≈ 0.962 µM).

As for `CC1(C)CC[C@]2(c3n[nH]c(O)c3N3CCNCC3)CC[C@]3(C)C(=CCC4[C@@]5(C)Cc6c(n[nH]c6N)C(C)(C)C5CC[C@]43C)C2C1` (stereo partly drawn) [Compound 90, 3-((4aS,6aS,6bR,13aR)-12-Amino-2,2,6a,6b,9,9,13a-heptamethyl-2,3,4,4a,5,6,6a,6b,7,8,8a,9,11,13,13a,13b,14,15b-octadecahydro-1H-chryseno[1,2-f]indazol-4-a-yl)-4-(piperazin-1-yl)-1H-pyrazol-5-ol], the melting point is > 300 °C. Moreover, the IC85 in the series on E. coli biofilms (setting [1]) stood at 1 µg/mL (≈ 1.62 µM). Further, the IC85 in the series with P. aeruginosa biofilms (setting [1]) was 0.5 µg/mL (≈ 0.812 µM).

As for `CC1(C)CC[C@]2(c3n[nH]c(O)c3CCNC(N)=O)CC[C@]3(C)C(=CCC4[C@@]5(C)Cc6c(n[nH]c6N)C(C)(C)C5CC[C@]43C)C2C1` (stereo partly drawn) [Compound 87, 1-(2-(3-((4aS,6aS,6bR,13aR)-12-Amino-2,2,6a,6b,9,9,13a-heptamethyl-2,3,4,4a,5,6,6a,6b,7,8,8a,9,11,13,13a,13b,14,15b-octadecahydro-1H-chryseno[1,2-f]indazol-4-a-yl)-5-hydroxy-1H-pyrazol-4-yl)ethyl)urea], the melting point is > 300 °C. In the series with E. coli biofilms (setting [1]), the IC85 amounted to 1 µg/mL (≈ 1.62 µM). In the series on P. aeruginosa biofilms (setting [1]), the IC85 was determined as 0.5 µg/mL (≈ 0.809 µM).

On to `CC1(C)CC[C@]2(C(=O)Nc3nnc(S)s3)CC[C@]3(C)C(=CCC4[C@@]5(C)Cc6c(n[nH]c6N)C(C)(C)C5CC[C@]43C)C2C1` (stereo partly drawn) (as salt: ammonium) [Compound 74, (4aS,6aS,6bR,13aR)-12-Amino-N-(5-mercapto-1,3,4-thiadiazol-2-yl)-2,2,6a,6b,9,9,13a-heptamethyl-2,3,4,4a,5,6,6a,6b,7,8,8a,9,11,13,13a,13b,14,15b-octadecahydro-1H-chryseno[1,2-f]indazole-4-a-carboxamide], for which the melting point was > 300 °C.
